Measured values reported in ChEMBL document CHEMBL1201862, “PubChem BioAssay data set” (2004).
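Test compounds were applied to cells in 96-well plates for 48 hours at 5 doses. GI50 is the concentration that inhibits growth by half.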 Active and inactive are the calls of the source. Rule as the data show it: active = GI50 up to about 1.1 µM and inactive = higher.

Experiments:
Assay in all cases: NCI anticancer screen, dose series, 48 h
786-0 = tested on: 786-0
ACHN = tested on: ACHN
U-251 = tested on: U-251
SF-539 = tested on: SF-539
NCI/ADR-RES = tested on: NCI/ADR-RES
HCT-116 = tested on: HCT-116
Hs-578T = tested on: Hs-578T
COLO 205 = tested on: COLO 205
NCI-H23 = tested on: NCI-H23
SK-MEL-2 = tested on: SK-MEL-2
SF-295 = tested on: SF-295
MDA-MB-435 = tested on: MDA-MB-435
SK-OV-3 = tested on: SK-OV-3
RPMI-8226 = tested on: RPMI-8226
NCI-H460 = tested on: NCI-H460
CCRF-CEM = tested on: CCRF-CEM
HOP-92 = tested on: HOP-92
UACC-257 = tested on: UACC-257
SNB-19 = tested on: SNB-19
MDA-MB-231 = tested on: MDA-MB-231
DU-145 = tested on: DU-145
SF-268 = tested on: SF-268
EKVX = tested on: EKVX
M14 = tested on: M14
CAKI-1 = tested on: CAKI-1
MCF7 = tested on: MCF7
IGROV-1 = tested on: IGROV-1
SW-620 = tested on: SW-620
A549 = tested on: A549
TK-10 = tested on: TK-10
Malme-3M = tested on: Malme-3M
LOX IMVI = tested on: LOX IMVI
HL-60 = tested on: HL-60
HOP-62 = tested on: HOP-62
OVCAR-8 = tested on: OVCAR-8
OVCAR-5 = tested on: OVCAR-5
SR = tested on: SR
HT-29 = tested on: HT-29
MOLT-4 = tested on: MOLT-4
NCI-H522 = tested on: NCI-H522
SNB-75 = tested on: SNB-75
OVCAR-4 = tested on: OVCAR-4
HCC 2998 = tested on: HCC 2998
SN12C = tested on: SN12C
PC-3 = tested on: PC-3
KM12 = tested on: KM12
K562 = tested on: K562
UACC-62 = tested on: UACC-62
BT-549 = tested on: BT-549
OVCAR-3 = tested on: OVCAR-3
UO-31 = tested on: UO-31
HCT-15 = tested on: HCT-15
SK-MEL-28 = tested on: SK-MEL-28
NCI-H226 = tested on: NCI-H226
RXF 393 = tested on: RXF 393
SK-MEL-5 = tested on: SK-MEL-5
A498 = tested on: A498
T47D = tested on: T47D

O=C1/C(=C/c2cccc(F)c2)CCCc2ccccc21
GI50 (786-0): 17.2 µM (inactive)
GI50 (ACHN): 19.1 µM (inactive)
GI50 (U-251): 16.2 µM (inactive)
GI50 (SF-539): 17.4 µM (inactive)
GI50 (NCI/ADR-RES): 16.5 µM (inactive)
GI50 (HCT-116): 15.6 µM (inactive)
GI50 (Hs-578T): 13.2 µM (inactive)
GI50 (COLO 205): 20.3 µM (inactive)
GI50 (NCI-H23): 20.4 µM (inactive)
GI50 (SK-MEL-2): 16.2 µM (inactive)
GI50 (SF-295): 16.1 µM (inactive)
GI50 (MDA-MB-435): 16.2 µM (inactive)
GI50 (SK-OV-3): 27.2 µM (inactive)
GI50 (RPMI-8226): 14.9 µM (inactive)
GI50 (NCI-H460): 17.4 µM (inactive)
GI50 (CCRF-CEM): 15.5 µM (inactive)
GI50 (HOP-92): 15.8 µM (inactive)
GI50 (UACC-257): 16.9 µM (inactive)
GI50 (SNB-19): 16 µM (inactive)
GI50 (MDA-MB-231): 18.3 µM (inactive)
GI50 (DU-145): 16.9 µM (inactive)
GI50 (SF-268): 12.9 µM (inactive)
GI50 (EKVX): 15 µM (inactive)
GI50 (M14): 13.9 µM (inactive)
GI50 (CAKI-1): 17.7 µM (inactive)
GI50 (MCF7): 14.6 µM (inactive)
GI50 (IGROV-1): 12.2 µM (inactive)
GI50 (SW-620): 16.9 µM (inactive)
GI50 (A549): 17.7 µM (inactive)
GI50 (TK-10): 15.7 µM (inactive)
GI50 (Malme-3M): 11.6 µM (inactive)
GI50 (LOX IMVI): 16.5 µM (inactive)
GI50 (HL-60): 21.5 µM (inactive)
GI50 (HOP-62): 14.3 µM (inactive)
GI50 (OVCAR-8): 15.8 µM (inactive)
GI50 (OVCAR-5): 15.1 µM (inactive)
GI50 (SR): 14.7 µM (inactive)
GI50 (HT-29): 13.2 µM (inactive)
GI50 (MOLT-4): 17.7 µM (inactive)
GI50 (NCI-H522): 12.9 µM (inactive)
GI50 (SNB-75): 17.3 µM (inactive)
GI50 (OVCAR-4): 16.7 µM (inactive)
GI50 (HCC 2998): 14.7 µM (inactive)
GI50 (SN12C): 17.9 µM (inactive)
GI50 (PC-3): 15.7 µM (inactive)
GI50 (KM12): 12.1 µM (inactive)
GI50 (K562): 15.1 µM (inactive)
GI50 (UACC-62): 15.3 µM (inactive)
GI50 (BT-549): 17.6 µM (inactive)
GI50 (OVCAR-3): 15.3 µM (inactive)
GI50 (UO-31): 16.3 µM (inactive)
GI50 (HCT-15): 15.9 µM
GI50 (SK-MEL-28): 16.6 µM (inactive)
GI50 (NCI-H226): 14.6 µM (inactive)

COC(=O)[C@@H](Cc1ccccc1)NNC(=O)OC(C)(C)C
GI50 (786-0): > 100 µM (inactive)
GI50 (ACHN): > 100 µM (inactive)
GI50 (U-251): > 100 µM (inactive)
GI50 (SF-539): > 100 µM (inactive)
GI50 (NCI/ADR-RES): > 100 µM (inactive)
GI50 (HCT-116): > 100 µM (inactive)
GI50 (Hs-578T): > 100 µM (inactive)
GI50 (COLO 205): > 100 µM (inactive)
GI50 (NCI-H23): > 100 µM (inactive)
GI50 (RXF 393): > 100 µM (inactive)
GI50 (SF-295): > 100 µM (inactive)
GI50 (SK-MEL-5): > 100 µM (inactive)
GI50 (MDA-MB-435): > 100 µM (inactive)
GI50 (SK-OV-3): > 100 µM (inactive)
GI50 (RPMI-8226): > 100 µM (inactive)
GI50 (NCI-H460): > 100 µM (inactive)
GI50 (CCRF-CEM): > 100 µM (inactive)
GI50 (UACC-257): > 100 µM (inactive)
GI50 (MDA-MB-231): > 100 µM (inactive)
GI50 (DU-145): > 100 µM (inactive)
GI50 (SF-268): > 100 µM (inactive)
GI50 (EKVX): > 100 µM (inactive)
GI50 (MCF7): > 100 µM (inactive)
GI50 (IGROV-1): > 100 µM (inactive)
GI50 (SW-620): > 100 µM (inactive)
GI50 (A549): > 100 µM (inactive)
GI50 (TK-10): > 100 µM (inactive)
GI50 (Malme-3M): > 100 µM (inactive)
GI50 (LOX IMVI): > 100 µM (inactive)
GI50 (HL-60): > 100 µM (inactive)
GI50 (HOP-62): > 100 µM (inactive)
GI50 (OVCAR-8): > 100 µM (inactive)
GI50 (OVCAR-5): > 100 µM (inactive)
GI50 (SR): > 100 µM (inactive)
GI50 (MOLT-4): > 100 µM (inactive)
GI50 (NCI-H522): > 100 µM (inactive)
GI50 (OVCAR-4): > 100 µM (inactive)
GI50 (HCC 2998): > 100 µM (inactive)
GI50 (SN12C): > 100 µM (inactive)
GI50 (PC-3): > 100 µM (inactive)
GI50 (KM12): > 100 µM (inactive)
GI50 (K562): > 100 µM (inactive)
GI50 (A498): > 100 µM (inactive)
GI50 (UACC-62): > 100 µM (inactive)
GI50 (BT-549): > 100 µM (inactive)
GI50 (OVCAR-3): > 100 µM (inactive)
GI50 (T47D): > 100 µM (inactive)
GI50 (HCT-15): > 100 µM
GI50 (SK-MEL-28): > 100 µM (inactive)
